Laboratory results published in patent US20090203697A1, “HETEROCYCLIC TYPE CINNAMIDE DERIVATIVE” (priority 2006, published 2009).

System: Aβ42 production
Test: Quantification of Aβ peptide in neuronal culture from rat fetus brain (Aβ ELISA)
Format: cell-based
Details: 72 h; rat primary neuronal culture (cerebral cortex, embryonic day 18 Wistar rats); medium collected three days after addition of the compound; Aβx-42 ELISA; read-out: Aβ42 production reducing effect IC50
Experimental: Quantification of Aβ Peptide in Neuronal Culture from Rat Fetus Brain
(1) Rat Primary Neuronal Culture
Primary neuronal cultures were prepared from the cerebral cortex of embryonic day 18 Wistar rats (Charles River Japan, Yokohama, Japan). Specifically, the embryos were aseptically removed from pregnant rats under ether anesthesia. The brain was isolated from the embryo and immersed in an ice-cold L-15 medium (such as Invitrogen Corp. Cat #11415-064, Carlsbad, Calif., USA, or SIGMA L1518). The cerebral cortex was collected from the isolated brain under a stereoscopic microscope. The cerebral cortex fragments collected were enzymatically treated in an enzyme solution containing 0.25% trypsin (Invitrogen Corp. Cat #15050-065, Carlsbad, Calif., USA) and 0.01% DNase (Sigma D5025, St. Louis, Mo., USA) at 37° C. for 30 minutes to disperse the cells. Here, the enzymatic reaction was stopped by adding inactivated horse serum to the solution. The enzymatically treated solution was centrifuged at 1,500 rpm for five minutes to remove the supernatant. 5 to 10 ml of a medium was added to the resulting cell mass. Neurobasal medium (Invitrogen Corp. Cat #21103-049, Carlsbad, Calif., USA) supplemented with 2% B27 supplement (Invitrogen Corp. Cat #17504-044, Carlsbad, Calif., USA), 25 μM 2-mercaptoethanol (2-ME, WAKO Cat #139-06861, Osaka, Japan), 0.5 mM L-glutamine (Invitrogen Corp. Cat #25030-0817 Carlsbad, Calif., USA), and Antibiotics-Antimycotics (Invitrogen Corp. Cat #15240-062, Carlsbad, Calif., USA) was used as the medium (Neurobasal/B27/2-ME). However, the above Neurobasal medium not supplemented with 2-ME (Neurobasal/B27) was used for the assay. The cells were redispersed by mild pipetting of the cell mass to which the medium was added. The cell dispersion was filtered through a 40-μm nylon mesh (Cell Strainer, Cat #35-2340, Becton Dickinson Labware, Franklin Lakes, N.J., USA) to remove the remaining cell mass, and thus a neuronal cell suspension was obtained. The neuronal cell suspension was diluted with the medium and then plated in a volume of 100 μl/well at an initial cell density of 5×10^5 cells/cm^2 in a 96-well polystyrene culture plate pre-coated with poly-L or D-lysine (Falcon Cat #35-3075, Becton Dickinson Labware, Franklin Lakes, N.J., USA coated with poly-L-lysine using the method shown below, or BIOCOAT™ cell environments Poly-D-lysine cell ware 96-well plate, Cat #35-6461, Becton Dickinson Labware, Franklin Lakes, N.J., USA). Poly-L-lysine coating was carried out as follows. 100 μg/ml of a poly-L-lysine (SIGMA P2636, St. Louis, Mo., USA) solution was aseptically prepared with a 0.15 M borate buffer. (pH 8.5). […] of the solution was added to the 96-well polystyrene culture plate and incubated at room temperature for one or more hours or at 4° C. overnight or longer. The coated 96-well polystyrene culture plate was washed with sterile water four or more times, and then dried or rinsed with, for example, sterile PBS or medium, and used for cell plating. The plated cells were cultured in the culture plate at 37° C. in 5% CO2-95% air for one day. Then, the total amount of the medium was replaced with a fresh Neurobasal™/B27/2-ME medium, and then the cells were cultured for further three days.
The drug was added to the culture plate on Day 4 of culture as follows. The total amount of the medium was removed from the wells, and 180 μl/well of Neurobasal medium not containing 2-ME and containing 2% B-27 (Neurobasal/B27) was added thereto. A solution of the test compound in dimethyl sulfoxide (hereinafter abbreviated as DMSO) was diluted with Neurobasal/B27 to a concentration 10-fold higher than the final concentration. 20 μl/well of the dilution was added to and sufficiently mixed with the medium. The final DMSO concentration was 1% or less. Only DMSO was added to the control group.
The cells were cultured for three days after addition of the compound, and the total amount of the medium was collected. […]

SMILES	IC50
COc1cc(/C=C2\CCCN([C@@H](C)c3cc(F)c(F)c(F)c3)C2=O)ccc1-n1cnc(C)n1 [Example 6, (E)-3-[1-[3-methoxy-4-(3-methyl[1,2,4]triazol-1-yl)phenyl]methylidene]-1-[(S)-1-(3,4,5-trifluorophenyl)ethyl]piperidin-2-one]	320 nM
COc1cc(/C=C2\O[C@@H](C)CN(C(C)(C)c3ccc(F)cc3)C2=O)ccc1-n1cnc(C)n1 [Example 17, (Z)-(6S)-4-[1-(4-fluorophenyl)-1-methylethyl]-2-[1-[3-methoxy-4-(3-methyl[1,2,4]triazol-1-yl)phenyl]methylidene]-6-methylmorpholin-3-one]	180 nM
COc1cc(/C=C2\O[C@@H](C)CN([C@H](c3cc(F)c(F)c(F)c3)[C@@H](C)O)C2=O)ccc1-n1cnc(C)n1 [Example 18, (Z)-(6S)-4-[(1R,2R)-2-hydroxy-1-(3,4,5-trifluorophenyl)propyl]-2-[1-[3-methoxy-4-(3-methyl[1,2,4]triazol-1-yl)phenyl]methylidene]-6-methylmorpholin-3-one]	160 nM
COc1cc(/C=C2\OC(C)(C)CN([C@H](c3cc(F)c(F)c(F)c3)[C@@H](C)O)C2=O)ccc1-n1cnc(C)n1 [Example 19, (Z)-4-[(1R,2R)-2-hydroxy-1-(3,4,5-trifluorophenyl)propyl]-2-[1-[3-methoxy-4-(3-methyl[1,2,4]triazol-1-yl)phenyl]methylidene]-6,6-dimethylmorpholin-3-one]	150 nM
COc1cc(/C=C2\OCCN([C@H](c3cc(F)c(F)c(F)c3)[C@@H](C)O)C2=O)ccc1-n1cnc(C)n1 [Example 20, (Z)-4-[(1R,2R)-2-hydroxy-1-(3,4,5-trifluorophenyl)propyl]-2-[1-[3-methoxy-4-(3-methyl[1,2,4]triazol-1-yl)phenyl]methylidene]morpholin-3-one]	210 nM
COc1cc(/C=C2\CCCN([C@H](c3cc(F)c(F)c(F)c3)[C@@H](C)O)C2=O)ccc1-n1cnc(C)n1 [Example 21, (E)-1-[(1R,2R)-2-hydroxy-1-(3,4,5-trifluorophenyl)propyl]-3-[1-[3-methoxy-4-(3-methyl[1,2,4]triazol-1-yl)phenyl]methylidene]piperidin-2-one]	60 nM
COc1cc(/C=C2\CCCN([C@H](c3ccc(F)cc3)[C@@H](C)O)C2=O)ccc1-n1cnc(C)n1 [Example 22, (E)-1-[(1R,2R)-1-(4-fluorophenyl)-2-hydroxypropyl]-3-{1-[3-methoxy-4-(3-methyl[1,2,4]triazol-1-yl)phenyl]methylidene}piperidin-2-one]	50 nM
COc1cc(/C=C2\OC(C)(C)CN([C@H](c3ccc(F)cc3)[C@@H](C)O)C2=O)ccc1-n1cnc(C)n1 [Example 23, (Z)-4-[(1R,2R)-1-(4-fluorophenyl)-2-hydroxypropyl]-2-[1-[3-methoxy-4-(3-methyl[1,2,4]triazol-1-yl)phenyl]methylidene]-6,6-dimethylmorpholin-3-one]	400 nM
COc1cc(/C=C2\O[C@@H](C)CN([C@H](c3ccc(F)cc3)[C@@H](C)O)C2=O)ccc1-n1cnc(C)n1 [Example 24, (6S)-(Z)-4-[(1R,2R)-1-(4-fluorophenyl)-2-hydroxypropyl]-2-[1-[3-methoxy-4-(3-methyl[1,2,4]triazol-1-yl)phenyl]methylidene]-6-methylmorpholin-3-one]	290 nM
COc1cc(/C=C2\CC[C@H]3CC[C@@H](c4ccc(F)c(F)c4)N3C2=O)ccc1-n1cnc(C)n1 [Example 26, (E)-(3S,8aS)-3-(3,4-difluorophenyl)-6-[3-methoxy-4-(3-methyl[1,2,4]triazol-1-yl)benzylidene]hexahydroindolizin-5-one]	380 nM
COc1cc(/C=C2\CC(C)(C)CN([C@@H](C)c3ccc(F)cc3)C2=O)ccc1-n1cnc(C)n1 [Example 27, (E)-1-[(S)-1-(4-fluorophenyl)ethyl]-3-[1-[3-methoxy-4-(3-methyl[1,2,4]triazol-1-yl)phenyl]methylidene]-5,5-dimethylpiperidin-2-one]	270 nM
COc1cc(/C=C2\CC[C@H]3CCC[C@@H](c4ccc(F)cc4)N3C2=O)ccc1-n1cnc(C)n1 [Example 28, (E)-(6S,9aR)-6-(4-fluorophenyl)-3-{1-[3-methoxy-4-(3-methyl[1,2,4]triazol-1-yl)phenyl]methylidene}octahydroquinolizin-4-one]	440 nM
